# Assay results: patent publication US20220196659A1, “METHOD FOR DETERMINING EFFICACY” (LDN Pharma Limited, priority 2019, published 2022)
# Tests used:
# [1] = tested on: CD3+/CD8+ cells (killer T-cells); experiment: CD3+ activation: CD69 expression of PBMCs cultured with LDN or NTX (flow cytometry); format: cell-based; settings: 48 h culture of PBMCs
# Description: Peripheral-blood mononuclear cells were isolated from whole blood or from the residue product of leucoreduction of whole blood from pathologically healthy donors using Histopaque-1077. The mononuclear fraction was harvested and red blood cell contamination removed by incubation in hypotonic ammonium chloride. Cells were washed in phosphate buffered saline (PBS) and platelet contamination removed by centrifugation at 200 g for 10 min, re-suspended at a concentration of 1×10^6 ml in RPMI-1640 culture medium. […] Peripheral-blood mononuclear cells were washed twice in wash buffer (PBS containing 1% (v/v) FBS and 0.09% (v/v) NaN3), and stained for 30 min at 4° C. with the relevant and stated antibodies for assessment of immune cell profile. Cells were washed in wash buffer and fixed in 4% paraformaldehyde for 20 min at 4° C. Expressions of the surface markers were analysed using a BD Bioscience LSR II flow cytometer with dedicated proprietary software.
# [2] = tested on: pERK; experiment: PD analysis: Western blotting of PBMCs from normal volunteers after a single naltrexone tablet; format: in vivo, human; settings: Western blot
# Description: There were 5 treatment cohorts with 8 normal volunteers in each cohort. […] PBMCs were harvested at 0 and 48 h by ficoll extraction and lysed in cell lysis buffer. Western blotting was then performed on the samples, and pERK, tERK, BAX and p21 measured.
smiles,measurement,setting,value
"O=C1CC[C@@]2(O)[C@H]3Cc4ccc(O)c5c4[C@@]2(CCN3CC2CC2)[C@H]1O5 [naltrexone, morphinan-6-one,17-(cyclopropylmethyl)-4,5-epoxy-3,14-dihydroxy-(5+)]",CD69 expression in CD3+/CD8+ cells,[1]; 10 nM naltrexone (LDN),increased
same,CD69 expression in CD3+/CD8+ cells,[1]; 10 uM naltrexone (NTX),did not increase
same,level of pERK expression at 48 h compared to 0 h,[2]; single dose 1 mg tablet,decreased
same,level of pERK expression at 48 h compared to 0 h,[2]; single dose 3 mg tablet,increased
same,level of pERK expression at 48 h compared to 0 h,[2]; single dose 4.5 mg tablet,decreased
same,level of pERK expression at 48 h compared to 0 h,[2]; single dose 6 mg tablet,decreased
same,level of pERK expression at 48 h compared to 0 h,[2]; single dose 10 mg tablet,decreased
